Target: Acetylcholinesterase (Electrophorus electricus, UniProt O42275)
Experiment: Inhibition of electric eel AChE using acetylthiocholine as substrate incubated for 20 mins prior to substrate addition measured every 30 secs for 4 mins by Ellman's method

Sequence of Acetylcholinesterase (O42275 whole entry): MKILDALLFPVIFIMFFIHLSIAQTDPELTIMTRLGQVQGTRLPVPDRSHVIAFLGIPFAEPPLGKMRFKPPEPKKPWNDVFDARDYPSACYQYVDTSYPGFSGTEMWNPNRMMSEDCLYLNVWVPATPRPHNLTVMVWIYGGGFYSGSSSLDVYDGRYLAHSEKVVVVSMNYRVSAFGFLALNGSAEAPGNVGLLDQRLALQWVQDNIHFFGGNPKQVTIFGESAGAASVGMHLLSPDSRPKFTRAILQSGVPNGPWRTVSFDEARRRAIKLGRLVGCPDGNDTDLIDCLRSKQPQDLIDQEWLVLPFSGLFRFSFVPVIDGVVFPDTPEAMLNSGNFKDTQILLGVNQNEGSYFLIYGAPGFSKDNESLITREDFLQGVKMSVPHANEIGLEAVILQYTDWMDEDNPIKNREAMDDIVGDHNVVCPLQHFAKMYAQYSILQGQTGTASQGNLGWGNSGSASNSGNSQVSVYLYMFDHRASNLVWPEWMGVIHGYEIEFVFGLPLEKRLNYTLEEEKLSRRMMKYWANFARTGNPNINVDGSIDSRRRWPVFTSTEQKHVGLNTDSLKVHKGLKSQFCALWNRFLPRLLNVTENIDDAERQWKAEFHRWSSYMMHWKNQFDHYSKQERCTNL

Structure (SMILES) | IC50 [µM]
Brc1ccccc1-c1nnc(/C=C/c2ccc3c(c2)OCO3)o1 | 40.2
COc1cc(/C=C/c2nnc(-c3ccc(F)cc3Cl)o2)cc(OC)c1OC | 60.2
O=[N+]([O-])c1cccc(-c2nnc(/C=C/c3ccc4c(c3)OCO4)o2)c1 | 49.4
Clc1ccc(-c2nnc(/C=C/c3ccc4c(c3)OCO4)o2)c(Cl)c1 | 50.3
COc1cc(/C=C/c2nnc(-c3ccc([N+](=O)[O-])cc3)o2)cc(OC)c1OC | 49
COc1cc(/C=C/c2nnc(-c3ccccc3)o2)cc(OC)c1OC | 24.9
COc1cc(/C=C/c2nnc(-c3cccnc3Cl)o2)cc(OC)c1OC | 61.2
Clc1ccccc1-c1nnc(/C=C/c2ccc3c(c2)OCO3)o1 | 47.4
COc1cc(/C=C/c2nnc(-c3cncc(Br)c3)o2)cc(OC)c1OC | 62.8
Clc1ncccc1-c1nnc(/C=C/c2ccc3c(c2)OCO3)o1 | 54.3
COc1cc(/C=C/c2nnc(-c3ccc(C)cc3)o2)cc(OC)c1OC | 60.2
COc1ccc(-c2nnc(/C=C/c3cc(OC)c(OC)c(OC)c3)o2)cc1 | 61.2
C(=C\c1nnc(-c2cccnc2)o1)/c1ccc2c(c1)OCO2 | 48.5
Brc1cncc(-c2nnc(/C=C/c3ccc4c(c3)OCO4)o2)c1 | 52.5
C(=C\c1nnc(-c2ccccc2)o1)/c1ccc2c(c1)OCO2 | 50.1
COc1cc(/C=C/c2nnc(-c3ccc(Cl)cc3Cl)o2)cc(OC)c1OC | 62.2
Cc1ccc(-c2nnc(/C=C/c3ccc4c(c3)OCO4)o2)cc1 | 45.3
O=[N+]([O-])c1ccc(-c2nnc(/C=C/c3ccc4c(c3)OCO4)o2)cc1 | 37.6
COc1ccc(-c2nnc(/C=C/c3ccc4c(c3)OCO4)o2)cc1 | 42.8
COc1cc(/C=C/c2nnc(-c3cccnc3)o2)cc(OC)c1OC | 65
COc1cc(/C=C/c2nnc(-c3ccccc3Cl)o2)cc(OC)c1OC | 58.1
COc1cc(/C=C/c2nnc(-c3cc4ccccc4o3)o2)cc(OC)c1OC | 60.4
COc1cc(-c2nnc(/C=C/c3ccc4c(c3)OCO4)o2)cc(OC)c1OC | 48.6
Fc1ccc(-c2nnc(/C=C/c3ccc4c(c3)OCO4)o2)c(Cl)c1 | 19.6
COc1cc(/C=C/c2nnc(-c3cccc([N+](=O)[O-])c3)o2)cc(OC)c1OC | 65.8
COc1cc(/C=C/c2nnc(-c3ccco3)o2)cc(OC)c1OC | 13.7
COc1cc(/C=C/c2nnc(-c3ccccc3Br)o2)cc(OC)c1OC | 64.9
COc1ccc(-c2nnc(/C=C/c3ccc4c(c3)OCO4)o2)cc1OC | 40.5
Fc1ccc(-c2nnc(/C=C/c3ccc4c(c3)OCO4)o2)cc1Cl | 49.6
COc1cc(/C=C/c2nnc(-c3cc(OC)c(OC)c(OC)c3)o2)cc(OC)c1OC | 61.5
